In brackets after ≈: the same amount, converted by molar mass.
Tests used:
[1] = tested on: E. faecalis; test: Growth inhibition screening (broth dilution); format: cell-based, Enterococcus faecalis; settings: Enterococcus faecalis
Experimental: (§1) In vitro screening of the compounds (PS1–14) was performed to assess the antibacterial activity against three Gram-positive (Staphylococcus aureus, Enterococcus faecalis and Bacillus subtilis,) and three Gram-negative (Pseudomonas aeruginosa, Klebsiella pneumonia and Escherichia coli) bacterial strains using the standard NCCLS broth dilution assay. The study’s standard drugs were ciprofloxacin (CIP) and ampicillin (AMP). Compounds were dissolved in a polar solvent (DMSO) and distributed into a 96-well plate in 200 µL of nutrient broth medium, with a final concentration of the compounds […] in each well. The bacterial cells (about 2.5 × 10^5 cells/mL) were inoculated into each well and incubated at 37 °C overnight. After incubation, the growth was measured by turbidity of the culture at 590 nm by spectrophotometer.

[2] = tested on: B. subtilis; test: Growth inhibition screening (broth dilution); format: cell-based, Bacillus subtilis; settings: Bacillus subtilis
Experimental: as §1

[3] = tested on: S. aureus; test: Growth inhibition screening (broth dilution); format: cell-based, Staphylococcus aureus; settings: Staphylococcus aureus
Experimental: as §1

[4] = tested on: P. aeruginosa; test: Growth inhibition screening (broth dilution); format: cell-based, Pseudomonas aeruginosa; settings: Pseudomonas aeruginosa
Experimental: as §1

[5] = tested on: E. coli; test: Growth inhibition screening (broth dilution); format: cell-based, Escherichia coli; settings: Escherichia coli
Experimental: as §1

[6] = tested on: K. pneumoniae; test: Growth inhibition screening (broth dilution); format: cell-based, Klebsiella pneumonia; settings: Klebsiella pneumoniae
Experimental: as §1

[7] = tested on: E. faecalis; test: Minimum inhibitory concentration (broth dilution); format: cell-based; settings: Enterococcus faecalis, alone
[8] = tested on: S. aureus; test: Minimum inhibitory concentration (broth dilution); format: cell-based; settings: Staphylococcus aureus, alone
[9] = tested on: P. aeruginosa; test: Minimum inhibitory concentration (broth dilution); format: cell-based; settings: Pseudomonas aeruginosa, alone
[10] = tested on: E. coli; test: Minimum inhibitory concentration (broth dilution); format: cell-based, Escherichia coli; settings: Escherichia coli, alone, read-out: MIC
[11] = tested on: K. pneumoniae; test: Minimum inhibitory concentration (broth dilution); format: cell-based, Klebsiella pneumonia; settings: Klebsiella pneumoniae, alone, read-out: MIC
[12] = tested on: E. faecalis; test: Combination study with AMP or CIP
[13] = tested on: B. subtilis; test: Combination study with AMP or CIP
[14] = tested on: S. aureus; test: Combination study with AMP or CIP
[15] = tested on: P. aeruginosa; test: Combination study with AMP or CIP
[16] = tested on: E. coli; test: Combination study with AMP or CIP
[17] = tested on: K. pneumoniae; test: Combination study with AMP or CIP
[18] = biological target: T1, MtMetAP1c (Mycobacterium tuberculosis, UniProt P9WK19); test: MetAP enzyme inhibition, Morrison Ki (Met-AMC fluorescence); format: biochemical, M. tuberculosis; settings: Morrison Ki method
T1 construct: made in house
T1 sequence (P9WK19 whole entry): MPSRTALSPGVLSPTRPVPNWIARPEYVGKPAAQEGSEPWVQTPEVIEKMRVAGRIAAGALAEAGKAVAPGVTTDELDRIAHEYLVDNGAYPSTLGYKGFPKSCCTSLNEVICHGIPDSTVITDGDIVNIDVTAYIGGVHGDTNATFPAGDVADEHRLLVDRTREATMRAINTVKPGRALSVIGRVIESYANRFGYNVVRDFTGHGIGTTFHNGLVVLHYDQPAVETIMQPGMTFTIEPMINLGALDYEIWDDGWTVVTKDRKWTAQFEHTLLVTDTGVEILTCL
Experimental: MetAP appears to serve a vital role in the co- or post-translational modification of proteins, making it essential for bacterial cell metabolism and survival. In this study, all enzymes, which were used for this study, including MtMetAP1c (M. tuberculosis), EfMetAP1a (E. faecalis), SpMetAP1a (S. pneumoniae) and HsMetAP1b (H. sapiens) enzymes, were expressed and purified in our lab as previously reported. All compounds prepared 10 mM stocks in DMSO and were used for enzyme inhibition studies. The concentration of each enzyme is adjusted such that they have similar reaction rates (HsMetAp1b, 1 µM; SpMetAP1a, 5 µM; EfMetAP1a, 1 µM; MtMetAP1c, 1 µM;) as reported earlier. All assays were performed in […] reaction containing 50 mM HEPES (pH 7.5 for SpMetAP1a and HsMetAP1b; 8.0 for EfMetAP1a, MtMetAP1c, […]), 150 mM NaCl, and CoCl2 (three molar equivalents of corresponding enzymes). The reaction was started by adding 50 μM L-Methionine 7-amido-4-methyl coumarin (Met-AMC) and continuously monitoring the fluorescence of released 7-amino-4-methyl coumarin (AMC) (380 nm excitation and 460 nm emission) in a microplate multimode reader (TECAN, Austria). The maximum percentage of inhibition against enzymes is calculated at […] compound concentration. […] The Ki values were determined according to the Morrison method using three different concentrations of substrates and ten different concentrations of the inhibitor. All experiments were performed in triplicate. GraphPad Prism version 8.0.0 (San Diego, CA, USA) was used to determine all the kinetic parameters.

[19] = biological target: EfMetAP1a (Enterococcus faecalis, UniProt Q832M5); test: as above; format: biochemical; settings: Morrison Ki method
Chain of EfMetAP1a (Q832M5 entry or part of it): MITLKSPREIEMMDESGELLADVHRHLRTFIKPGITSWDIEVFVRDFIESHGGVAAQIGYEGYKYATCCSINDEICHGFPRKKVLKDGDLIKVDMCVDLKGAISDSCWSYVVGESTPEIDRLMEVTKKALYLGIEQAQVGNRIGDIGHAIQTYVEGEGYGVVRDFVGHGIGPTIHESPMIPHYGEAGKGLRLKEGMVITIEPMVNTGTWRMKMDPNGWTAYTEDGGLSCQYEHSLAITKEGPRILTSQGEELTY

[20] = biological target: SpMetAP1a (Streptococcus pneumoniae, UniProt Q8DPV1); test: as above; format: biochemical; settings: Morrison Ki method
Chain of SpMetAP1a (Q8DPV1 entry or part of it): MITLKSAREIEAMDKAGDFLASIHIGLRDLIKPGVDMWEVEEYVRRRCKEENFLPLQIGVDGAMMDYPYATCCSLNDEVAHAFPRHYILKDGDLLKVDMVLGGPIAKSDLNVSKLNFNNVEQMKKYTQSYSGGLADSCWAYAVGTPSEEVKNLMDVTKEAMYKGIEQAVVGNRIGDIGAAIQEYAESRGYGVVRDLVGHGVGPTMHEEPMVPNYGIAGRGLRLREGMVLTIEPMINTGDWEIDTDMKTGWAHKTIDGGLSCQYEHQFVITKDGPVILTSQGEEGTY

Compound	inhibition at 250 µg/mL [1] [%]	inhibition at 250 µg/mL [2] [%]	inhibition at 250 µg/mL [3] [%]	inhibition at 250 µg/mL [4] [%]	inhibition at 250 µg/mL [5] [%]	inhibition at 250 µg/mL [6] [%]	Ki [18] [nM]	melting point [°C]	other results
O=C(O)c1cn(C2CC2)c2cc(N3CCNCC3)c(F)cc2c1=O [CIP, Ciprofloxacin, reference compound]	100	100	100	100	100	100	–	–	MIC [7]: 1 µg/mL (≈ 3.02 µM); MIC [8]: 0.5 µg/mL (≈ 1.51 µM); MIC [9]: 4 µg/mL (≈ 12.1 µM); MIC [10]: 8 µg/mL (≈ 24.1 µM); MIC [11]: 8 µg/mL (≈ 24.1 µM); MIC in Combination ([12]; combination PS6 + CIP): 0.0625 µg/mL; MIC in Combination ([12]; combination PS9 + CIP): 1 µg/mL; MIC in Combination ([13]; combination PS6 + CIP): 0.0078 µg/mL; MIC in Combination ([13]; combination PS9 + CIP): 0.5 µg/mL; MIC in Combination ([14]; combination PS6 + CIP): 0.25 µg/mL; MIC in Combination ([14]; combination PS9 + CIP): 0.0156 µg/mL; MIC in Combination ([15]; combination PS6 + CIP): 0.5 µg/mL; MIC in Combination ([15]; combination PS9 + CIP): 0.125 µg/mL; MIC in Combination ([16]; combination PS6 + CIP): 0.5 µg/mL; MIC in Combination ([16]; combination PS9 + CIP): 0.03125 µg/mL; MIC in Combination ([17]; combination PS6 + CIP): 4 µg/mL; MIC in Combination ([17]; combination PS9 + CIP): 0.0078 µg/mL
O=C1Nc2ccccc2/C1=N\NC(=O)c1cc(-c2cccc(Br)c2)n[nH]1 [PS1, (E)-3-(3-Bromophenyl)-N′-(2-Oxoindolin-3-YLIDENE)-1H-Pyrazole-5-Carbohydrazide]	12	76	73	4	40	74	2300 ± 270	218 to 221	Ki [19]: 2650 ± 340 nM; Ki [20]: 4480 ± 120 nM
Cc1ccc2c(c1)/C(=N\NC(=O)c1cc(-c3cccc(Br)c3)n[nH]1)C(=O)N2 [PS2, (E)-3-(3-Bromophenyl)-N′-(5-Methyl-2-Oxoindolin-3-Ylidene)-1H-Pyrazole-5-Carbohydrazide]	10	80	66	87	86	90	4370 ± 140	209 to 213	Ki [20]: 2980 ± 180 nM
Cc1cc(C)c2c(c1)/C(=N\NC(=O)c1cc(-c3cccc(Br)c3)n[nH]1)C(=O)N2 [PS4, (E)-3-(3-Bromophenyl)-N′-(5,7-Dimethyl-2-Oxoindolin-3-Ylidene)-1H-Pyrazole-5-Carbohydrazide]	47	44	81	90	80	97	–	257 to 260	–
O=C1Nc2ccc(Br)cc2/C1=N\NC(=O)c1cc(-c2cccc(Br)c2)n[nH]1 [PS5, (E)-N′-(5-Bromo-2-Oxoindolin-3-Ylidene)-3-(3-Bromophenyl)-1H-Pyrazole-5-Carbohydrazide]	86	34	100	100	9	100	3140 ± 410	230 to 233	–
O=C1Nc2cc(F)ccc2/C1=N\NC(=O)c1cc(-c2cccc(Br)c2)n[nH]1 [PS7, (E)-3-(3-Bromophenyl)-N′-(6-Fluoro-2-Oxoindolin-3-Ylidene)-1H-Pyrazole-5-Carbohydrazide]	99	100	10	65	3	49	–	228 to 230	–
O=C1Nc2ccc(Cl)cc2/C1=N\NC(=O)c1cc(-c2cccc(Br)c2)n[nH]1 [PS8, (E)-3-(3-Bromophenyl)-N′-(5-Chloro-2-Oxoindolin-3-Ylidene)-1H-Pyrazole-5-Carbohydrazide]	13	93	3	100	84	52	–	217 to 220	–
O=C1Nc2c(cccc2[N+](=O)[O-])/C1=N\NC(=O)c1cc(-c2cccc(Br)c2)n[nH]1 [PS10, (E)-3-(3-Bromophenyl)-N′-(7-Nitro-2-Oxoindolin-3-Ylidene)-1H-Pyrazole-5-Carbohydrazide]	85	56	82	100	88	52	–	215 to 218	–
COc1ccc2c(c1)NC(=O)/C2=N/NC(=O)c1cc(-c2cccc(Br)c2)n[nH]1 [PS12, (E)-3-(3-Bromophenyl)-N′-(6-Methoxy-2-Oxoindolin-3-Ylidene)-1H-Pyrazole-5-Carbohydrazide]	65	85	100	23	74	6	610 ± 30	228 to 230	Ki [19]: 3250 ± 140 nM
O=C1Nc2c(Cl)cccc2/C1=N\NC(=O)c1cc(-c2cccc(Br)c2)n[nH]1 [PS13, (E)-3-(3-Bromophenyl)-N′-(7-Chloro-2-Oxoindolin-3-Ylidene)-1H-Pyrazole-5-Carbohydrazide]	36	33	92	95	20	74	–	205 to 208	–
O=C1Nc2cc([N+](=O)[O-])ccc2/C1=N\NC(=O)c1cc(-c2cccc(Br)c2)n[nH]1 [PS14, (E)-3-(3-Bromophenyl)-N′-(6-Nitro-2-Oxoindolin-3-Ylidene)-1H-Pyrazole-5-Carbohydrazide]	9	86	33	3	34	17	1270	225 to 228	Ki [20]: 500 ± 30 nM

From publication PMC9405123, “Design, Synthesis and Mechanistic Studies of Novel Isatin-Pyrazole Hydrazone Conjugates as Selective and Potent Bacterial MetAP Inhibitors” (Antibiotics, 2022)
